{"source": "patent US20150164762A1", "about": "“USE OF ETHANOLAMINE PHOSPHATE” (priority 2012, published 2015)", "type_in_all_cases": "cell-based, human", "key": {"HEK 293": {"system": "HEK 293", "assay": "WST-8 proliferation test, HEK 293 immortalized model cells", "conditions": "0% FBS, 96 hours, even at high concentrations", "protocol": "(§1) 0% FBS RPMI-1640 was used as the medium. 24 hours after seeding the cells were washed with 20 μl per well of PBS, and the medium was replaced with 0% FBS RPMI-1640. Following medium replacement, EP solution with 10 times the set concentration was added 10 μl per well, and a proliferation test (WST-8 assay) was performed 96 hours after addition of EP."}, "BEAS-2B [1]": {"system": "BEAS-2B", "assay": "Cell toxicity of H2O2 after EP pre-treatment (WST-8 assay)", "protocol": "Cells of the normal airway epithelial cell line BEAS-2B were seeded at a density of 1×10^5/cm^2 on a 96-well plate, and after 24 hours the medium was replaced with 0.5% FBS RPMI 1640 containing EP at final concentrations of 0, 250 and 500 μM. 24 hours after medium replacement the medium was replaced with 0.5% FBS RPMI-1640, and serially diluted H2O2 was administered (n=4). 24 hours after H2O2 administration a cell toxicity test WST-8 assay (Cell Counting Kit-8, Dojindo) was performed. For the data analysis, the 50% cell death concentration EC50 was calculated with GraphPad Prism 5 statistical analysis software."}, "THP-1": {"system": "THP-1", "assay": "WST-8 proliferation test, THP-1 floating cells", "conditions": "0% FBS, 72 hours, high concentrations of 125 μM or more", "protocol": "THP-1 (human acute monocytic leukemia cells) and HL-60 (human myeloid leukemia cells) were logarithmically growth cultured in 10% FBS RPMI-1640 to 2 to 10×10^5 cells/cm^2 to achieve logarithmic growth before EP administration. The cell culture liquid was then centrifuged and precipitated at 1000 rpm, and 90 μl per well was dispensed onto a 96-well plate to 2×10^4 cells/cm^2 in 0% FBS RPMI-1640. […] For the WST-8 assay of the floating cells, 10 μl per well of WST-8 assay reagent was added directly to the cell suspension during culture, and after 1 hour absorbance at 450 nm and 600 nm was measured with a plate reader and the data were analyzed as in the examples above."}, "A549": {"system": "A549", "assay": "WST-8 proliferation test, A549 cancer cells", "conditions": "0% FBS, 96 hours, even at high concentrations", "protocol": "as §1"}, "BEAS-2B [2]": {"system": "BEAS-2B", "assay": "Proliferative effects of EP and its metabolic derivatives (WST-8)", "conditions": "0.1% FBS, 72 hours"}, "BEAS-2B [3]": {"system": "BEAS-2B", "assay": "Permeability test, 4-kilodalton fluorescent dextran through BEAS-2B cell sheet (Papp)", "conditions": "EP 1 mM, 7 days after seeding", "protocol": "Cells of the established normal human airway epithelial cell line BEAS-2B were seeded to 1×10^5 cells/cm^2 on a cell culture insert (353104, BD Falcon) (FIG. 14). 10% FBS RPMI-1640 was used as the medium. The amount of medium was 200 μl on the insert side and 750 μl on the well side. Beginning the next day, substitution/medium replacement was performed once a day with 1% FBS RPMI-1640 prepared with the following 4 reagent conditions, and transepithelial electrical resistance (TER) was measured with MilliCell (Millipore). • Condition 1: Control • Condition 2: EP 1 mM • Condition 3: Dexamethasone 1 μM (dexamethasone (Dex): positive control substance known to enhance barrier function) • Condition 4: EP 1 mM and Dex 1 μM\n7 days after cell seeding a permeability test was performed as follows.\nA 4-kilodalton fluorescent dextran molecule (Sigma) was added to the cell culture insert to a concentration of 0.1 mg/ml, 20 μl of the medium on the well side was removed after 1 hour, and the amount of permeating fluorescent dextran was estimated from the fluorescent strength at each concentration. The permeation rate Papp of a substance from the insert side to the well side is normally determined by the following formula.\nPapp=(volume of medium on well side/insert area×initial insert concentration)×(altered concentration on well side/elapsed time)"}}, "data": [{"smiles": "NCCOP(=O)(O)O", "note": "[EP, Ethanolamine phosphate]", "values": [{"measurement": "cell proliferation ability", "setting": "HEK 293", "result": "absolutely no cell proliferation ability"}, {"measurement": "Toxity reduction rate % (H2O2 cytotoxicity)", "setting": "BEAS-2B [1]; EP pre-treatment 250 uM", "result": 33, "unit": "%"}, {"measurement": "Toxity reduction rate % (H2O2 cytotoxicity)", "setting": "BEAS-2B [1]; EP pre-treatment 500 uM", "result": 28, "unit": "%"}, {"measurement": "reduction of the cytotoxicity of H2O2", "setting": "BEAS-2B [1]; pre-treatment with 250 to 500 μM of EP", "result": "about 30%"}, {"measurement": "cell proliferation effect", "setting": "THP-1", "result": "small cell proliferation effect"}, {"measurement": "cell proliferation ability", "setting": "A549", "result": "absolutely no cell proliferation ability"}, {"measurement": "proliferative action", "setting": "BEAS-2B [2]", "result": "dose-dependent proliferative action"}, {"measurement": "permeation rate Papp of fluorescent dextran, lower than control", "setting": "BEAS-2B [3]", "result": 25, "unit": "%"}]}]}
